# Target: T1, human orexin type 2 receptor (Homo sapiens, UniProt O43614)
# T1 construct: expressed in transfected cells
# T1 sequence (O43614 1-444): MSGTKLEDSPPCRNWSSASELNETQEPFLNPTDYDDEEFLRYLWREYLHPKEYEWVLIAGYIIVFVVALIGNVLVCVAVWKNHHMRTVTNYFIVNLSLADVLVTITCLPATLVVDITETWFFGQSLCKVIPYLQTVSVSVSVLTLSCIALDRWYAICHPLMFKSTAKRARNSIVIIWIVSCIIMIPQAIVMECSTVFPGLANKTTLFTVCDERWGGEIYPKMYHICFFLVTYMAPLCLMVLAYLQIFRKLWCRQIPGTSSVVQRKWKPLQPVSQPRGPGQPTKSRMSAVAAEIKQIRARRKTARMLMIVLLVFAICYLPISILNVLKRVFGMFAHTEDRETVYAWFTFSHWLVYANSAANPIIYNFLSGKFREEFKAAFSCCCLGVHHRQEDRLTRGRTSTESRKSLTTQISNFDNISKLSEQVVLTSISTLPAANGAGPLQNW
# Experiment: Measurement of orexin type 2 receptor agonist activity (calcium fluorescence, Fluo-4 AM, FDSS)
# Type: cell-based
# Conditions: test compound 3 μM; CHO cells expressing human OX2 receptor; DMSO = 0%, orexin A (human) = 100%
# Method in brief: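 CHO-K1 cells stably expressing human OX2R were loaded with Fluo-4 AM (30 min 37 °C, 30 min RT) in HEPES-buffered HBSS with 0.1% BSA and probenecid. Calcium fluorescence was followed on FDSS for 2 min after compound addition; activity normalised to DMSO (0%) and 10 nM orexin A (100%).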
row,"OX2R agonist activity (3 μM, %)",SMILES
1,60%,"CS(=O)(=O)NC1CCCN(C(=O)C2CC2c2cccc(F)c2-c2ccccc2F)C1 (racemic) [Example 105, a mixture of rac-N-{(3R)-1-[(1R,2R)-2-(2′,6-difluoro[1,1′-biphenyl]-2-yl)cyclopropane-1-carbonyl]piperidin-3-yl}methanesulfonamide and rac-N-{(3S)-1-[(1R,2R)-2-(2′,6-difluoro[1,1′-biphenyl]-2-yl)cyclopropane-1-carbonyl]piperidin-3-yl}methanesulfonamide]"
2,103%,"CS(=O)(=O)NC[C@H]1CCN1C(=O)[C@@H]1C[C@@]1(F)c1ccccc1-c1c(F)cccc1F [Example 371, N-({(2R)-1-[(1S,2S)-2-(2′,6′-difluoro[1,1′-biphenyl]-2-yl)-2-fluorocyclopropane-1-carbonyl]azetidin-2-yl}methyl)methanesulfonamide]"
3,101%,"CCS(=O)(=O)NC1CCCN(C(=O)C2CC2c2ccccc2-c2c(F)cccc2F)CC1 (racemic) [Example 112, a mixture of rac-N-{(4R)-1-[(1R,2R)-2-(2′,6′-difluoro[1,1′-biphenyl]-2-yl)cyclopropane-1-carbonyl]azepan-4-yl}ethanesulfonamide and rac-N-{(4S)-1-[(1R,2R)-2-(2′,6-difluoro[1,1′-biphenyl]-2-yl)cyclopropane-1-carbonyl]azepan-4-yl}ethanesulfonamide]"
4,95%,"COCS(=O)(=O)N[C@H]1CCCN(C(=O)C2CC2c2ccccc2-c2c(F)cccc2F)C1 (mixture of isomers) [Example 214, a mixture of N-{(3S)-1-[(1R,2R)-2-(2′,6′-difluoro[1,1′-biphenyl]-2-yl)cyclopropane-1-carbonyl]piperidin-3-yl}-1-methoxymethanesulfonamide and N-{(3S)-1-[(1S,2S)-2-(2′,6′-difluoro[1,1′-biphenyl]-2-yl)cyclopropane-1-carbonyl]piperidin-3-yl}-1-methoxymethanesulfonamide]"
5,100%,"CC1(C(=O)N2CC[C@H](NS(C)(=O)=O)C2)CC1c1ccccc1-c1c(F)cccc1F (stereo partly drawn) [Example 247, N-{(3S)-1-[(1R,2S)-2-(2′,6′-difluoro[1,1′-biphenyl]-2-yl)-1-methylcyclopropane-1-carbonyl]pyrrolidin-3-yl}methanesulfonamide, or N-{(3S)-1-[(1S,2R)-2-(2′,6′-difluoro[1,1′-biphenyl]-2-yl)-1-methylcyclopropane-1-carbonyl]pyrrolidin-3-yl}methanesulfonamide]"
6,50%,"CC(=O)[C@@H]1CN(C(=O)[C@@H]2C[C@@]2(F)c2ccccc2-c2c(F)cccc2F)[C@H]1CNS(C)(=O)=O [Example 406, N-({(2R,3R)-3-acetyl-1-[(1S,2S)-2-(2′,6′-difluoro[1,1′-biphenyl]-2-yl)-2-fluorocyclopropane-1-carbonyl]azetidin-2-yl}methyl)methanesulfonamide]"
7,98%,"CS(=O)(=O)NC1CCC2CN(C(=O)C3CC3c3ccccc3-c3c(F)cccc3F)CC21 (stereo not drawn) [Example 238, N-2-[(2-(2′,6′-difluoro[1,1′-biphenyl]-2-yl)cyclopropane-1-carbonyl]octahydrocyclopenta[c]pyrrol-4-yl}methanesulfonamide Optical Isomer]"
8,100%,"CS(=O)(=O)N[C@H]1CCCN(C(=O)C2CC2c2cccc(F)c2-c2c(F)cccc2F)CC1 (mixture of isomers) [Example 194, a mixture of N-{(4S)-1-[(1R,2R)-2-(2′,6,6′-trifluoro[1,1′-biphenyl]-2-yl)cyclopropane-1-carbonyl]azepan-4-yl}methanesulfonamide and N-{(4S)-1-[(1S,2S)-2-(2′,6,6′-trifluoro[1,1′-biphenyl]-2-yl)cyclopropane-1-carbonyl]azepan-4-yl}methanesulfonamide]"
9,99%,"O=C([C@@H]1C[C@@]1(F)c1ccc(F)cc1-c1c(F)cccc1F)N1C[C@@H](F)[C@H]1CNS(=O)(=O)C1CC1 [Example 429, N-({(2R,3R)-3-fluoro-1-[(1S,2S)-2-fluoro-2-(2′,5,6′-trifluoro[1,1′-biphenyl]-2-yl)cyclopropane-1-carbonyl]azetidin-2-yl}methyl)cyclopropanesulfonamide]"
10,101%,"CS(=O)(=O)N[C@H]1CCN(C(=O)C2CC2(F)c2ccccc2-c2c(F)cccc2F)C1 (mixture of isomers) [Example 198, a mixture of N-{(3S)-1-[(1R,2R)-2-(2′,6′-difluoro[1,1′-biphenyl]-2-yl)-2-fluorocyclopropane-1-carbonyl]pyrrolidin-3-yl}methanesulfonamide and N-{(3S)-1-[(1S,2S)-2-(2′,6′-difluoro[1,1′-biphenyl]-2-yl)-2-fluorocyclopropane-1-carbonyl]pyrrolidin-3-yl}methanesulfonamide]"
11,90%,"CC[C@@H]1CN(C(=O)[C@@H]2C[C@@]2(F)c2ccccc2-c2c(F)cccc2F)[C@H]1CNS(C)(=O)=O [Example 381, N-({(2R,3R)-1-[(1S,2S)-2-(2′,6′-difluoro[1,1′-biphenyl]-2-yl)-2-fluorocyclopropane-1-carbonyl]-3-ethylazetidin-2-yl}methyl)methylsulfonamide]"
12,100%,"CCS(=O)(=O)N[C@H]1CCCN(C(=O)[C@@H]2C[C@H]2c2c(F)cccc2-c2c(F)cccc2F)C1 [Example 307, N-{(3S)-1-[(1R,2R)-2-(2′,3,6′-trifluoro[1,1′-biphenyl]-2-yl)cyclopropane-1-carbonyl]piperidin-3-yl}ethanesulfonamide]"
13,99%,"CS(=O)(=O)NC12CC1CN(C(=O)C1CC1c1ccccc1-c1c(F)cccc1F)C2 (stereo not drawn) [Example 272, N-{3-[2-(2′,6′-difluoro[1,1′-biphenyl]-2-yl)cyclopropane-1-carbonyl]-3-azabicyclo[3.1.0]hexan-1-yl}methanesulfonamide optical isomer]"
14,99%,"CS(=O)(=O)N[C@@H]1CN(C(=O)[C@@H]2C[C@@]2(F)c2ccccc2-c2c(F)cccc2F)CCC1(F)F [Example 333, N-{(3R)-1-[(1S,2S)-2-(2′,6′-difluoro[1,1′-biphenyl]-2-yl)-2-fluorocyclopropane-1-carbonyl]-4,4-difluoropiperidin-3-yl}methanesulfonamide]"
15,62%,"CS(=O)(=O)NC1CCCN(C(=O)C2CC2c2cc(F)ccc2-c2c(F)cccc2F)CC1 (racemic) [Example 96, a mixture of rac-N-{(4R)-1-[(1R,2R)-2-(2′,4,6′-trifluoro[1,1′-biphenyl]-2-yl)cyclopropane-1-carbonyl]azepan-4-yl}methanesulfonamide and rac-N-{(4S)-1-[(1R,2R)-2-(2′,4,6′-trifluoro[1,1′-biphenyl]-2-yl)cyclopropane-1-carbonyl]azepan-4-yl}methanesulfonamide]"
16,66%,"CS(=O)(=O)NC1CCN(C(=O)C2CC2c2ccccc2-c2ccccc2F)C1 (racemic) [Example 12, a mixture of rac-N-{(3R)-1-[(1R,2R)-2-(2′-fluoro[1,1′-biphenyl]-2-yl)cyclopropane-1-carbonyl]pyrrolidin-3-yl}methanesulfonamide and rac-N-{(3S)-1-[(1R,2R)-2-(2′-fluoro[1,1′-biphenyl]-2-yl)cyclopropane-1-carbonyl]pyrrolidin-3-yl}methanesulfonamide]"
17,93%,"CS(=O)(=O)NC[C@@H]1CCN1C(=O)C1CC1c1c(-c2c(F)cccc2F)csc1F (stereo partly drawn) [Example 367, N-{[(2S)-1-{(1R,2R)-2-[4-(2,6-difluorophenyl)-2-fluorothiophen-3-yl]cyclopropane-1-carbonyl}azetidin-2-yl]methyl}methanesulfonamide, or N-{[(2S)-1-{(1S,2S)-2-[4-(2,6-difluorophenyl)-2-fluorothiophen-3-yl]cyclopropane-1-carbonyl}azetidin-2-yl]methyl}methanesulfonamide]"
18,100%,"COCC1(C(=O)N2CC[C@H](NS(C)(=O)=O)C2)CC1c1ccccc1-c1c(F)cccc1F (stereo partly drawn) [Example 346, N-{(3S)-1-[(1R,2S)-2-(2′,6′-difluoro[1,1′-biphenyl]-2-yl)-1-(methoxymethyl)cyclopropane-1-carbonyl]pyrrolidin-3-yl}methanesulfonamide, or N-{(3S)-1-[(1S,2R)-2-(2′,6′-difluoro[1,1′-biphenyl]-2-yl)-1-(methoxymethyl)cyclopropane-1-carbonyl]pyrrolidin-3-yl}methanesulfonamide]"
19,85%,"CS(=O)(=O)NC1CCCN(C(=O)C2CC2c2ccccc2-c2ccc(F)cc2F)C1 (racemic) [Example 68, a mixture of rac-N-{(3R)-1-[(1R,2R)-2-(2′,4′-difluoro[1,1′-biphenyl]-2-yl)cyclopropane-1-carbonyl]piperidin-3-yl}methanesulfonamide and rac-N-{(3S)-1-[(1R,2R)-2-(2′,4′-difluoro[1,1′-biphenyl]-2-yl)cyclopropane-1-carbonyl]piperidin-3-yl}methanesulfonamide]"
